Data from ChEMBL document CHEMBL1156996 (Bioorg Med Chem Lett, 2010).

Legend:
[1] = inhibition of Cryptococcus neoformans recombinant Can2 after 15 mins by stopped-flow CO2 hydration assay
Carbonic anhydrase = molecular target: T1, Carbonic anhydrase (Candida albicans (strain SC5314 / ATCC MYA-2876) (Yeast), UniProt Q5AJ71); test: inhibition of Candida albicans recombinant Nce103 after 15 mins by stopped-flow CO2 hydration assay
T1 sequence (Q5AJ71 whole entry): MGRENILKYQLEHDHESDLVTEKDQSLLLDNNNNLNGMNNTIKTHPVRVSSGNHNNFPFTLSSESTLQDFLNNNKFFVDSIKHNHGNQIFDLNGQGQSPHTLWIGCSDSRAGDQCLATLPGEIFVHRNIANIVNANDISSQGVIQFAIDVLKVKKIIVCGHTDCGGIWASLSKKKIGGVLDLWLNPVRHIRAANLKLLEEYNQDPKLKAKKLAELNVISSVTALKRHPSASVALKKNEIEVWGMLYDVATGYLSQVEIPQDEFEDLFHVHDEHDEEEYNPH

[2] = molecular target: T2, Carbonic anhydrase (Candida albicans (strain SC5314 / ATCC MYA-2876) (Yeast)) (UniProt Q5AJ71); test: Ratio of compound to acetazolamide activity for inhibition of Candida albicans recombinant Nce103
T2 sequence (whole entry): T1 sequence (Q5AJ71 whole entry)

[3] = Selectivity ratio of IC50 for human CA2 to IC50 for Cryptococcus neoformans Can2
[4] = Selectivity ratio of IC50 for human CA1 to IC50 for Cryptococcus neoformans Can2

Ratio [2] | SMILES | Ki [1] | Ki (Carbonic anhydrase) | Ratio IC50 [3] | Ratio IC50 [4]
– | Cc1cc(C)[n+](NC(=O)c2[nH]c3ccc(S(N)(=O)=O)cc3c2-c2ccccc2C)c(C)c1.[O-][Cl+3]([O-])([O-])[O-] | 6.5 nM | 62 nM | – | –
– | COc1cccc(-c2c(C(=O)N[n+]3c(C)cc(C)cc3C)[nH]c3ccc(S(N)(=O)=O)cc23)c1.[O-][Cl+3]([O-])([O-])[O-] | 8.3 nM | 119 nM | – | –
– | Cc1cc(C)[n+](NC(=O)c2[nH]c3ccc(S(N)(=O)=O)cc3c2-c2cccc(Cl)c2)c(C)c1.[O-][Cl+3]([O-])([O-])[O-] | 4.4 nM | 31 nM | – | –
– | Cc1cc(C)[n+](NC(=O)c2[nH]c3ccc(S(N)(=O)=O)cc3c2-c2ccccc2Cl)c(C)c1.[O-][Cl+3]([O-])([O-])[O-] | 15.4 nM | 33 nM | – | –
– | Cc1cccc(-c2c(C(=O)N[n+]3c(C)cc(C)cc3C)[nH]c3ccc(S(N)(=O)=O)cc23)c1.[O-][Cl+3]([O-])([O-])[O-] | 6.1 nM | 64 nM | – | –
– | Cc1ccc(-c2c(C(=O)N[n+]3c(C)cc(C)cc3C)[nH]c3ccc(S(N)(=O)=O)cc23)cc1.[O-][Cl+3]([O-])([O-])[O-] | 5.9 nM | 41 nM | – | –
– | Cc1cc(C)[n+](NC(=O)c2[nH]c3ccc(S(N)(=O)=O)cc3c2-c2ccc(Cl)cc2)c(C)c1.[O-][Cl+3]([O-])([O-])[O-] | 3.1 nM | 29 nM | – | –
– | NNC(=O)c1[nH]c2ccc(S(N)(=O)=O)cc2c1-c1ccc(F)cc1 | 8.6 nM | 61 nM | – | –
– | Cc1cc(C)[n+](NC(=O)c2[nH]c3ccc(S(N)(=O)=O)cc3c2-c2cccc(F)c2)c(C)c1.[O-][Cl+3]([O-])([O-])[O-] | 8.3 nM | 24 nM | – | –
17.6 | NNC(=O)c1[nH]c2ccc(S(N)(=O)=O)cc2c1-c1c(F)c(F)c(F)c(F)c1F | 103 nM | – | – | –
– | NNC(=O)c1[nH]c2ccc(S(N)(=O)=O)cc2c1-c1cccc(F)c1 | 7.2 nM | 54 nM | – | –
– | Cc1ccc(-c2c(C(=O)NN)[nH]c3ccc(S(N)(=O)=O)cc23)cc1 | 10.5 nM | 52 nM | – | –
– | Cc1ccccc1-c1c(C(=O)NN)[nH]c2ccc(S(N)(=O)=O)cc12 | 9.2 nM | 78 nM | – | –
– | Cc1cc(C)[n+](NC(=O)c2[nH]c3ccc(S(N)(=O)=O)cc3c2-c2ccccc2)c(C)c1.[O-][Cl+3]([O-])([O-])[O-] | 16.5 nM | 42 nM | – | –
– | Cc1cc(C)[n+](NC(=O)c2[nH]c3ccc(S(N)(=O)=O)cc3c2-c2ccc(Br)cc2)c(C)c1.[O-][Cl+3]([O-])([O-])[O-] | 10.9 nM | 53 nM | – | –
– | Cc1cc(C)[n+](NC(=O)c2[nH]c3ccc(S(N)(=O)=O)cc3c2-c2ccc(F)cc2)c(C)c1.[O-][Cl+3]([O-])([O-])[O-] | 8.7 nM | 21 nM | – | –
– | Cc1cc(C)[n+](NC(=O)c2[nH]c3ccc(S(N)(=O)=O)cc3c2-c2ccccc2F)c(C)c1.[O-][Cl+3]([O-])([O-])[O-] | 16.2 nM | 19 nM | – | –
– | NNC(=O)c1[nH]c2ccc(S(N)(=O)=O)cc2c1-c1ccccc1Br | 62 nM | 81 nM | – | –
– | NNC(=O)c1[nH]c2ccc(S(N)(=O)=O)cc2c1-c1cccc(Br)c1 | 93 nM | 87 nM | – | –
– | NNC(=O)c1[nH]c2ccc(S(N)(=O)=O)cc2c1-c1cccc(Cl)c1 | 7.4 nM | 52 nM | – | –
– | Cc1cc(C)[n+](NC(=O)c2[nH]c3ccc(S(N)(=O)=O)cc3c2-c2c(F)c(F)c(F)c(F)c2F)c(C)c1.[O-][Cl+3]([O-])([O-])[O-] | 60.1 nM | 5.1 nM | – | –
– | NNC(=O)c1[nH]c2ccc(S(N)(=O)=O)cc2c1-c1ccccc1 | 72 nM | 85 nM | – | –
– | Cc1cccc(-c2c(C(=O)NN)[nH]c3ccc(S(N)(=O)=O)cc23)c1 | 9.1 nM | 43 nM | 5.1 | 80.2
– | NNC(=O)c1[nH]c2ccc(S(N)(=O)=O)cc2c1-c1ccc(Cl)cc1 | 70 nM | 55 nM | – | –
– | NNC(=O)c1[nH]c2ccc(S(N)(=O)=O)cc2c1-c1ccccc1Cl | 8 nM | 45 nM | 4.8 | 80
– | COc1cccc(-c2c(C(=O)NN)[nH]c3ccc(S(N)(=O)=O)cc23)c1 | 12 nM | 128 nM | – | –
– | Cc1cc(C)[n+](NC(=O)c2[nH]c3ccc(S(N)(=O)=O)cc3c2-c2cccc(Br)c2)c(C)c1.[O-][Cl+3]([O-])([O-])[O-] | 14.3 nM | 48 nM | – | –
– | NNC(=O)c1[nH]c2ccc(S(N)(=O)=O)cc2c1-c1ccc(Br)cc1 | 118 nM | 94 nM | – | –
– | Cc1cc(C)[n+](NC(=O)c2[nH]c3ccc(S(N)(=O)=O)cc3c2-c2ccccc2Br)c(C)c1.[O-][Cl+3]([O-])([O-])[O-] | 12.1 nM | 45 nM | – | –
– | NNC(=O)c1[nH]c2ccc(S(N)(=O)=O)cc2c1-c1ccccc1F | 7.9 nM | 47 nM | – | –
